In one experiment the target is T1, p300 (Homo sapiens, UniProt Q09472).
T1 construct: host or cells: A549 P300 HiBit cells
Kind of experiment: P300 degradation, HiBit technology in A549 P300 HiBit cells (2 h). Format: cell-based. The note with it: 2 hrs post treatment; for Dmax: A549, A549 P300 HiBit cells; for DC50: A549 P300 HiBit cells. In a few lines:
(§1)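 HiBiT knock-in A549 cells received compound in serial dilution at 37 °C under 5% CO2. Remaining tagged protein was quantified by lytic HiBiT luminescence after 10 min shaking at room temperature, yielding potency and maximal degradation.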
Background: With HiBiT, luminescence reflects the tagged protein that the partner subunit can reach.

Another experiment has as its target T2, CBP (Homo sapiens, UniProt Q92793).
T2 construct: host or cells: A549 CBP HiBit cells
Description: CBP degradation, HiBit technology in A549 CBP HiBit cells (24 h). Format: cell-based. Conditions: 24 hrs post treatment. The procedure, abridged:
as §1

For orientation: Dmax means the largest share of the target that was removed. Usually DC50 stands for the concentration at which degradation of the target reaches its halfway point. Read a low DC50 as degradation at low concentration.

T1 sequence (Q09472 whole entry): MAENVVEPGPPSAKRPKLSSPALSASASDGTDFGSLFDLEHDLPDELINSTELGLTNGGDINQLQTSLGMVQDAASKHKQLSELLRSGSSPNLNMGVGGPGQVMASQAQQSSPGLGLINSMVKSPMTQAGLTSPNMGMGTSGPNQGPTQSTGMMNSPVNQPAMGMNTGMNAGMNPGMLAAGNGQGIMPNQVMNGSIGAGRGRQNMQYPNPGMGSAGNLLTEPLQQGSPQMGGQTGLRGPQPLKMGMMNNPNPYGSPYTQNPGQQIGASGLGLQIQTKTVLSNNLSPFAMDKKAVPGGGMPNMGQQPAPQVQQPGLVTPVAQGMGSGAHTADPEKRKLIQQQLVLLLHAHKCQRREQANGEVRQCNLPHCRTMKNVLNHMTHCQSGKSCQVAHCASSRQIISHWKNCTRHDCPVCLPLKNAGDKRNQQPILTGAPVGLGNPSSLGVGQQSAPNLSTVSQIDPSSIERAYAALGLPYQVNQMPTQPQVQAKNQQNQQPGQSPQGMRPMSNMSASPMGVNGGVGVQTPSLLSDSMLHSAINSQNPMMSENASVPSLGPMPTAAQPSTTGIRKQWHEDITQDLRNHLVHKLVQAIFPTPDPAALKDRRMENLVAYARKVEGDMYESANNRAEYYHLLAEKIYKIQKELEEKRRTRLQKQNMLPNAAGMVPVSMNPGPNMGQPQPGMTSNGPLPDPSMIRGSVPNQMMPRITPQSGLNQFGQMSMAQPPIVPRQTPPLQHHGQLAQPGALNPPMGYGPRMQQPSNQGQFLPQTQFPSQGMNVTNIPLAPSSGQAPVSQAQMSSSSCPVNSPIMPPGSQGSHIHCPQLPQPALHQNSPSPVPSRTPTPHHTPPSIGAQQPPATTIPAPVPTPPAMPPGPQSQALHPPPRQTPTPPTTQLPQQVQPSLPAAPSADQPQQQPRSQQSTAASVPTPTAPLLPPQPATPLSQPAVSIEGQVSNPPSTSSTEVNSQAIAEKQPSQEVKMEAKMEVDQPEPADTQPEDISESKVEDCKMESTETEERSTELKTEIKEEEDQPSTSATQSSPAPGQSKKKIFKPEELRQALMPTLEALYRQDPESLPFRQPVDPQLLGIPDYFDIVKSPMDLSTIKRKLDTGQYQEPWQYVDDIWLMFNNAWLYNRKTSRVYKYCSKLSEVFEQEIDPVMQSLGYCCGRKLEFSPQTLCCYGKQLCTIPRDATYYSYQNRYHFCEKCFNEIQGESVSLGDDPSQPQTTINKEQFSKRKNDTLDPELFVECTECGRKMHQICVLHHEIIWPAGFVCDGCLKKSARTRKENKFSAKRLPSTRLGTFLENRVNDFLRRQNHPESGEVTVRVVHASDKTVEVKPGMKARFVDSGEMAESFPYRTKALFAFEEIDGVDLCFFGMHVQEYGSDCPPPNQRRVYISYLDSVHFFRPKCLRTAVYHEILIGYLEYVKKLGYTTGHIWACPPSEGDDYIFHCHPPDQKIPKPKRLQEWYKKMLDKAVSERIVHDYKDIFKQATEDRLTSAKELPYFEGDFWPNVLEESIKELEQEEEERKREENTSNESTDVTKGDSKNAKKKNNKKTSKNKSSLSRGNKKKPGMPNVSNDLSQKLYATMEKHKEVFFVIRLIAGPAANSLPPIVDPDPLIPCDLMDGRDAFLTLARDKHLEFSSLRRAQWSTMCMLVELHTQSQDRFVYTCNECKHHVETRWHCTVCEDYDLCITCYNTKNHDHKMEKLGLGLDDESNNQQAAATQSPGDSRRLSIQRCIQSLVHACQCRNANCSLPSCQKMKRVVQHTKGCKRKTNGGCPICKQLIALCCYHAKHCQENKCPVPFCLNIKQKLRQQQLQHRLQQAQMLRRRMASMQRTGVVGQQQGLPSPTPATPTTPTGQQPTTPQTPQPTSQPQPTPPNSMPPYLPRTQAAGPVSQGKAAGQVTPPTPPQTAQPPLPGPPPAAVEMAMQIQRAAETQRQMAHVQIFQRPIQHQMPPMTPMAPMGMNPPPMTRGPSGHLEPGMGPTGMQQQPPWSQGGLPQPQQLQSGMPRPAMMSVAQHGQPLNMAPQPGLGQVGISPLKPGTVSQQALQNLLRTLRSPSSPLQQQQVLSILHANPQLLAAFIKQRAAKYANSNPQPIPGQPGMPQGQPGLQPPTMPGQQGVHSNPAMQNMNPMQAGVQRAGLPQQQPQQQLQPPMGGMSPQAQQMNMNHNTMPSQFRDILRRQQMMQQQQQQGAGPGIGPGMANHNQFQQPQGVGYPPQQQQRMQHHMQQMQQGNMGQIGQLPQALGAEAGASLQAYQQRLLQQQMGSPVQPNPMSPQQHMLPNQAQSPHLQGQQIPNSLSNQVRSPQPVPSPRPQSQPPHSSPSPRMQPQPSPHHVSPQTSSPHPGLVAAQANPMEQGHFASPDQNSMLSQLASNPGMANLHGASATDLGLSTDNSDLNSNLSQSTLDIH
T2 sequence (Q92793 whole entry): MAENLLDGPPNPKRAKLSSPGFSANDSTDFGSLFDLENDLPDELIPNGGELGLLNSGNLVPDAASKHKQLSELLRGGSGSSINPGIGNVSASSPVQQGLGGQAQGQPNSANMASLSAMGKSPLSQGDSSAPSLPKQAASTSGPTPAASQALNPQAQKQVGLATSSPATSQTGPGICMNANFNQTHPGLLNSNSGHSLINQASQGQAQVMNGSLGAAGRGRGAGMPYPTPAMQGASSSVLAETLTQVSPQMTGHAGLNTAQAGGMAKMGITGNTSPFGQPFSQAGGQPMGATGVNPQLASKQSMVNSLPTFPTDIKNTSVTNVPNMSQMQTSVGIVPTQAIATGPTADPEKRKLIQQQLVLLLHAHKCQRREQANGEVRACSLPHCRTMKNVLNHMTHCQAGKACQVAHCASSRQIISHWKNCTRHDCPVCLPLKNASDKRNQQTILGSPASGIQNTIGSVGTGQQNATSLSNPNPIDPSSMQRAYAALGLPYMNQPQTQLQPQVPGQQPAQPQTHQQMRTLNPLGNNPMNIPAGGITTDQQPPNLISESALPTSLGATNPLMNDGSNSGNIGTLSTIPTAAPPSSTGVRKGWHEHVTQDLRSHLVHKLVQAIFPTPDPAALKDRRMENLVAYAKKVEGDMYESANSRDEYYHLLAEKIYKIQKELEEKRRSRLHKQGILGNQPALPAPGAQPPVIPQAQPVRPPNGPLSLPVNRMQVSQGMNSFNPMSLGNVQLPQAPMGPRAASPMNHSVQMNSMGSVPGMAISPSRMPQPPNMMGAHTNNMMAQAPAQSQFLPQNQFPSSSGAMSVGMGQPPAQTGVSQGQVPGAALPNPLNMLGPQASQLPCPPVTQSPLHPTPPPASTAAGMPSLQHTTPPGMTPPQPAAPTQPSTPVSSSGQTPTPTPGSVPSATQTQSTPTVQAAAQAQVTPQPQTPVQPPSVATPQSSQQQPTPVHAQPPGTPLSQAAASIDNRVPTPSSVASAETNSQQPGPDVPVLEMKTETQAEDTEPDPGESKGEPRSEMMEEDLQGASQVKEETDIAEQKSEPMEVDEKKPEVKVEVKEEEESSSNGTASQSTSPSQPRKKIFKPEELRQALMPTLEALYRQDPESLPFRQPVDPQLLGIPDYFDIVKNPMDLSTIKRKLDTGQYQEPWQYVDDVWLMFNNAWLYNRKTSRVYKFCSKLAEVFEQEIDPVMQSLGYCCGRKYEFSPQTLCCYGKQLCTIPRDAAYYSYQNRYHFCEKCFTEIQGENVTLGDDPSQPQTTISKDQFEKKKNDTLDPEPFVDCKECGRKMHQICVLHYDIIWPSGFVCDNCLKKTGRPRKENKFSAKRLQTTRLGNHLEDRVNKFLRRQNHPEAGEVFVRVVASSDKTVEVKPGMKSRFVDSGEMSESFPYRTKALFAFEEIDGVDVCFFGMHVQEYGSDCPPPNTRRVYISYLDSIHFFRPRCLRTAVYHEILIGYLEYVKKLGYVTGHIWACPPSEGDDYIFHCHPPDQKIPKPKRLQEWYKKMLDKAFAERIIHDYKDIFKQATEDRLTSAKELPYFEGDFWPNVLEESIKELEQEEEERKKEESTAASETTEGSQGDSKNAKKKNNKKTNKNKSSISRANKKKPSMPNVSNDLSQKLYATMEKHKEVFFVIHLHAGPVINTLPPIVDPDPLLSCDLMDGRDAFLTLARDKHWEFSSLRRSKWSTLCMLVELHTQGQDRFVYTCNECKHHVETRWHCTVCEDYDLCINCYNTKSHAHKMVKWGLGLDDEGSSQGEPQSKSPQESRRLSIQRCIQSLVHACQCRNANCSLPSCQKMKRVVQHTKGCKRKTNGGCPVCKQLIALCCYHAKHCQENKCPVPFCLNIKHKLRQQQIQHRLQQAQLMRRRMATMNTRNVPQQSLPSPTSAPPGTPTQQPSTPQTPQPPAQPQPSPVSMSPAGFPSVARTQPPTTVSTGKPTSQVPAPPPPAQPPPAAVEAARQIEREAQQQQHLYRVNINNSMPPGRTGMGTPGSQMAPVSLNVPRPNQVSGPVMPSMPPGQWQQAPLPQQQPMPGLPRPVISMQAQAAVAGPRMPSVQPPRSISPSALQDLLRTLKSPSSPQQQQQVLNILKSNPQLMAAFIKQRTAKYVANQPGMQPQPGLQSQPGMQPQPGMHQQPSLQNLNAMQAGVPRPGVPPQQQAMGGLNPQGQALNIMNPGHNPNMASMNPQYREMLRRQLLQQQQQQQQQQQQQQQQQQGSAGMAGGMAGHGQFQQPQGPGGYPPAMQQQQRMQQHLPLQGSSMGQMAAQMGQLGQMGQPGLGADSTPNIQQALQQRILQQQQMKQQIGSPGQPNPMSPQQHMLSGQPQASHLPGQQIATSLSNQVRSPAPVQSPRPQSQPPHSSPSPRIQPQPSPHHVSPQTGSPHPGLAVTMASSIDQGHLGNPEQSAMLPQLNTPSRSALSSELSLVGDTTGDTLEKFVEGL

For `[2H]C([2H])(C#Cc1ccc2occ(C3CCC(=O)NC3=O)c2c1)NC(=O)c1ccc(-c2ncc3c(n2)CCCN3c2cc(C3CCOCC3)cc3c2cc(C)c(=O)n3C)cn1` (stereo not drawn) [Example B117, 5-(5-(1,3-dimethyl-2-oxo-7-(tetrahydro-2H-pyran-4-yl)-1,2-dihydroquinolin-5-yl)-5,6,7,8-tetrahydropyrido[3,2-d]pyrimidin-2-yl)-N-(3-(3-(2,6-dioxopiperidin-3-yl)benzofuran-5-yl)prop-2-yn-1-yl-1,1-d2)picolinamide], the Dmax at p300 was over 80%; on CBP, under 20%. The DC50 at p300 fell in the range of 1 to 9.9 nM; at CBP, 100 to 999 nM.
Regarding `Cc1cc2c(N3CCCc4nc(-c5ccc(C(=O)NCC#Cc6cc7c([C@H]8CCC(=O)NC8=O)cccc7o6)nc5)ncc43)cc(C3CCOCC3)nc2n(C)c1=O` [Example B48, (R)-5-(5-(6,8-dimethyl-7-oxo-2-(tetrahydro-2H-pyran-4-yl)-7,8-dihydro-1,8-naphthyridin-4-yl)-5,6,7,8-tetrahydropyrido[3,2-d]pyrimidin-2-yl)-N-(3-(4-(2,6-dioxopiperidin-3-yl)benzofuran-2-yl)prop-2-yn-1-yl)picolinamide], the Dmax on p300 was over 80%; on CBP it was under 20%. Further, the DC50 is under 1 nM on p300 and 100 to 999 nM on CBP.
The matching figures for `Cc1cc2c(N3CCCc4nc(-c5ccc(C(=O)NCC#Cc6cc7c(C8CCC(=O)NC8=O)c(F)ccc7o6)nc5)ncc43)cc(C3CCOCC3)cc2n(C)c1=O` (stereo not drawn) [Example B90, 5-(5-(1,3-dimethyl-2-oxo-7-(tetrahydro-2H-pyran-4-yl)-1,2-dihydroquinolin-5-yl)-5,6,7,8-tetrahydropyrido[3,2-d]pyrimidin-2-yl)-N-(3-(4-(2,6-dioxopiperidin-3-yl)-5-fluorobenzo-furan-2-yl)prop-2-yn-1-yl)picolinamide]: over 80%, under 20%, under 1 nM and over 1000 nM.
On p300, `Cc1cc2c(N3CCOc4cc(-c5ccc(C(=O)NCC#Cc6ccc7occ(C8CCC(=O)NC8=O)c7c6)nc5)c(F)cc43)cc(N3CC4(COC4)C3)cc2n(C)c1=O` (stereo not drawn) [Example B58, 5-(4-(1,3-dimethyl-2-oxo-7-(2-oxa-6-azaspiro[3.3]heptan-6-yl)-1,2-dihydro-quinolin-5-yl)-6-fluoro-3,4-dihydro-2H-benzo[b][1,4]oxazin-7-yl)-N-(3-(3-(2,6-dioxopiperidin-3-yl)benzofuran-5-yl)prop-2-yn-1-yl)picolinamide] had a Dmax of over 80% and a DC50 of 1 to 9.9 nM. In addition, at CBP, the 50% degradation concentration (DC50) is over 1000 nM and the maximal degradation (Dmax) is under 20%.
On p300, `Cc1cc2c(N3CCOc4cc(-c5ccc(C(=O)NCC#Cc6ccc7occ(C8CCC(=O)NC8=O)c7c6)nc5)c(F)cc43)cc(N3CC(C)(O)C3)cc2n(C)c1=O` (stereo not drawn) [Example B63, N-(3-(3-(2,6-dioxopiperidin-3-yl)benzofuran-5-yl)prop-2-yn-1-yl)-5-(6-fluoro-4-(7-(3-hydroxy-3-methylazetidin-1-yl)-1,3-dimethyl-2-oxo-1,2-dihydroquinolin-5-yl)-3,4-dihydro-2H-benzo[b][1,4]oxazin-7-yl) picolinamide] gave a Dmax of over 80% and a DC50 of 1 to 9.9 nM. At CBP, the DC50 lay in the range of 10 to 99 nM and the Dmax is 20 to 39%.
For the compound `Cc1cc(N2CCOc3nc(-c4ccc(C(=O)NCC#Cc5cc6c(C7CCC(=O)NC7=O)nccc6o5)nc4)ncc32)cc2c1n(C)c(=O)n2C` (stereo not drawn) [Example A160, N-(3-(4-(2,6-dioxo-piperidin-3-yl)furo[3,2-c]pyridin-2-yl)prop-2-yn-1-yl)-5-(5-(1,3,7-trimethyl-2-oxo-2,3-dihydro-1H-benzo[d]imidazol-5-yl)-6,7-dihydro-5H-pyrimido[4,5-b] [1,4]oxazin-2-yl)picolinamide], the values for the Dmax at p300 and on CBP were over 80% and under 20%, respectively. Also, the figures for the DC50 on p300 and at CBP were under 1 nM and over 1000 nM, respectively.
